Assay results taken from patent US8404708B2, “Dual NK1/NK3 receptor antagonists” (Hoffmann-La Roche Inc., priority 2004, dated 2013).

What was measured:
human NK1 receptor = human NK1 receptor (Homo sapiens, UniProt P25103); test: NK1 receptor binding, [3H]substance P displacement, CHO cell membranes; settings: first value of the cell pKi NK1/NK3; human NK1 receptor, [3H]substance P
[1] = target: T1, Recombinant human NK3 (hNK3) receptor (Homo sapiens, UniProt P29371); test: NK3 receptor binding, [3H]SR142801 displacement, membrane preparations; settings: second value of the cell pKi NK1/NK3; hNK3 receptor, [3H]SR142801
T1 construct: expressed in transfected cells
T1 sequence (P29371 1-465): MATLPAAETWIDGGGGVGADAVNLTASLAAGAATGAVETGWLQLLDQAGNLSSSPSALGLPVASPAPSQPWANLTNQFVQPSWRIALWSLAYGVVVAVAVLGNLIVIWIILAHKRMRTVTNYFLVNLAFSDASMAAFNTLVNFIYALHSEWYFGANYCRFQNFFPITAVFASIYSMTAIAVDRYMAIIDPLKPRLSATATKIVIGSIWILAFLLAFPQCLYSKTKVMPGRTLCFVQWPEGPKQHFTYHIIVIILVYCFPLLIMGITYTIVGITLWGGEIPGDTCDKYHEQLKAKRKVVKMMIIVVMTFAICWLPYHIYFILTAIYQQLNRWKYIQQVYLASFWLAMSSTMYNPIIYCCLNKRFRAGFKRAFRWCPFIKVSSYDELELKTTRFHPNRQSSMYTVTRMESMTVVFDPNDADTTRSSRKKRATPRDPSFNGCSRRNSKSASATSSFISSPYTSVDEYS
Summary of the method: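 hNK3 membranes (~2.5 μg/well) incubated 90 min at room temperature in 50 mM Tris-HCl pH 7.4 with 0.1% BSA, 4 mM MnCl2, 1 μM phosphoramidon. Nonspecific binding defined with 10 μM SB222200; bound [3H]SR142801 separated by filtration on PEI-soaked GF/C filters and counted by scintillation.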

Sequence of human NK1 receptor (P25103 whole entry): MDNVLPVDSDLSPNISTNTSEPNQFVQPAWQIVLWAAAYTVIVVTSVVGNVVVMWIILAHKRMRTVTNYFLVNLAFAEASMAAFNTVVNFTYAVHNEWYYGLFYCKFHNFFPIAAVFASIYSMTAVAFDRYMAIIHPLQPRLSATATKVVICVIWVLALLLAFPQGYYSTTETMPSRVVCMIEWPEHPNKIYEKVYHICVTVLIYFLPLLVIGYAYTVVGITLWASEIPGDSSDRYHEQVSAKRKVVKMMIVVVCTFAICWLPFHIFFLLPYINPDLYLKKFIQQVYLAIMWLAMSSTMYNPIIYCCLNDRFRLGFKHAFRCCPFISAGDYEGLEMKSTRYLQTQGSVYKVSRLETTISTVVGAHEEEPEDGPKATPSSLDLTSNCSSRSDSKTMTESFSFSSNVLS

| Ki (human NK1 receptor) | Ki [1] | Structure (SMILES) |
| --- | --- | --- |
| 0.891 nM | 11.7 nM | C[C@@H](O)[C@H](CO)Nc1cc(-c2ccccc2Cl)c(N(C)C(=O)C(C)(C)c2cc(C(F)(F)F)cc(C(F)(F)F)c2)cn1 [Example 146, (1S,2R)-2-(3,5-Bis-trifluoromethyl-phenyl)-N-[4-(2-chloro-phenyl)-6-(2-hydroxy-1-hydroxymethyl-propylamino)-pyridin-3-yl]-N-methyl-isobutyramide] |
| 0.724 nM | 10.5 nM | C[C@H](O)[C@H](CO)Nc1cc(-c2ccccc2Cl)c(N(C)C(=O)C(C)(C)c2cc(C(F)(F)F)cc(C(F)(F)F)c2)cn1 [Example 147, (1S,2S)-2-(3,5-Bis-trifluoromethyl-phenyl)-N-[4-(2-chloro-phenyl)-6-(2-hydroxy-1-hydroxymethyl-propylamino)-pyridin-3-yl]-N-methyl-isobutyramide] |
| 2.09 nM | 12 nM | CCCCCCN(CCO)c1cc(-c2ccccc2Cl)c(N(C)C(=O)C(C)(C)c2cc(C(F)(F)F)cc(C(F)(F)F)c2)cn1 [Example 148, 2-(3,5-Bis-trifluoromethyl-phenyl)-N-{4-(2-chloro-phenyl)-6-[hexyl-(2-hydroxy-ethyl)-amino]-pyridin-3-yl}-N-methyl-isobutyramide] |
| 1.29 nM | 6.17 nM | CCCCCN(CCO)c1cc(-c2ccccc2Cl)c(N(C)C(=O)C(C)(C)c2cc(C(F)(F)F)cc(C(F)(F)F)c2)cn1 [Example 149, 2-(3,5-Bis-trifluoromethyl-phenyl)-N-{4-(2-chloro-phenyl)-6-[(2-hydroxy-ethyl)-pentyl-amino]-pyridin-3-yl}-N-methyl-isobutyramide] |
| 1.32 nM | 0.977 nM | CN(C(=O)C(C)(C)c1cc(C(F)(F)F)cc(C(F)(F)F)c1)c1cnc(N(CCO)CCCO)cc1-c1ccccc1Cl [Example 150, 2-(3,5-Bis-trifluoromethyl-phenyl)-N-{4-(2-chloro-phenyl)-6-[(2-hydroxy-ethyl)-(3-hydroxy-propyl)-amino]-pyridin-3-yl}-N-methyl-isobutyramide] |
| 0.759 nM | 7.76 nM | CN(C(=O)C(C)(C)c1cc(C(F)(F)F)cc(C(F)(F)F)c1)c1cnc(N[C@@H]2CCC[C@H]2O)cc1-c1ccccc1Cl [Example 152, (1R,2R)-2-(3,5-Bis-trifluoromethyl-phenyl)-N-[4-(2-chloro-phenyl)-6-(2-hydroxy-cyclopentylamino)-pyridin-3-yl]-N-methyl-isobutyramide] |
| 0.49 nM | 4.07 nM | CN(C(=O)C(C)(C)c1cc(C(F)(F)F)cc(C(F)(F)F)c1)c1cnc(N[C@H]2CCC[C@@H]2O)cc1-c1ccccc1Cl [Example 153, (1S,2S)-2-(3,5-Bis-trifluoromethyl-phenyl)-N-[4-(2-chloro-phenyl)-6-(2-hydroxy-cyclopentylamino)-pyridin-3-yl]-N-methyl-isobutyramide] |
| 3.16 nM | 5.75 nM | Cc1cc(F)ccc1-c1cc(N[C@H]2CCC[C@@H]2O)ncc1N(C)C(=O)C(C)(C)c1cc(C(F)(F)F)cc(C(F)(F)F)c1 [Example 154, (1S,2S)-2-(3,5-Bis-trifluoromethyl-phenyl)-N-[4-(4-fluoro-2-methyl-phenyl)-6-(2-hydroxy-cyclopentylamino)-pyridin-3-yl]-N-methyl-isobutyramide] |
| 1.74 nM | 0.871 nM | Cc1cc(F)ccc1-c1cc(N2CC[C@H](O)[C@H]2CO)ncc1N(C)C(=O)C(C)(C)c1cc(C(F)(F)F)cc(C(F)(F)F)c1 [Example 155, (2R,3S)-2-(3,5-Bis-trifluoromethyl-phenyl)-N-[4-(4-fluoro-2-methyl-phenyl)-6-(3-hydroxy-2-hydroxymethyl-pyrrolidin-1-yl)-pyridin-3-yl]-N-methyl-isobutyramide] |
| 1.74 nM | 1.58 nM | Cc1cc(F)ccc1-c1cc(N2CC[C@@H](O)[C@H]2CO)ncc1N(C)C(=O)C(C)(C)c1cc(C(F)(F)F)cc(C(F)(F)F)c1 [Example 156, (2R,3R)-2-(3,5-Bis-trifluoromethyl-phenyl)-N-[4-(4-fluoro-2-methyl-phenyl)-6-(3-hydroxy-2-hydroxymethyl-pyrrolidin-1-yl)-pyridin-3-yl]-N-methyl-isobutyramide] |
| 2.51 nM | 1.58 nM | Cc1cc(F)ccc1-c1cc(N2CC=C[C@H]2CO)ncc1N(C)C(=O)C(C)(C)c1cc(C(F)(F)F)cc(C(F)(F)F)c1 [Example 157, (S)-2-(3,5-Bis-trifluoromethyl-phenyl)-N-[4-(4-fluoro-2-methyl-phenyl)-6-(2-hydroxymethyl-2,5-dihydro-pyrrol-1-yl)-pyridin-3-yl]-N-methyl-isobutyramide] |
| 1.66 nM | 0.955 nM | Cc1cc(F)ccc1-c1cc(N2C[C@H](O)C[C@H]2CO)ncc1N(C)C(=O)C(C)(C)c1cc(C(F)(F)F)cc(C(F)(F)F)c1 [Example 158, (2S,4R)-2-(3,5-Bis-trifluoromethyl-phenyl)-N-[4-(4-fluoro-2-methyl-phenyl)-6-(4-hydroxy-2-hydroxymethyl-pyrrolidin-1-yl)-pyridin-3-yl]-N-methyl-isobutyramide] |
| 1.78 nM | 9.55 nM | Cc1cc(F)ccc1-c1cc(N2CCC[C@H]2C(C)(C)O)ncc1N(C)C(=O)C(C)(C)c1cc(C(F)(F)F)cc(C(F)(F)F)c1 [Example 159, (S)-2-(3,5-Bis-trifluoromethyl-phenyl)-N-{4-(4-fluoro-2-methyl-phenyl)-6-[2-(1-hydroxy-1-methyl-ethyl)-pyrrolidin-1-yl]-pyridin-3-yl}-N-methyl-isobutyramide] |
| 2.04 nM | 30.2 nM | CN(C(=O)C(C)(C)c1cc(C(F)(F)F)cc(C(F)(F)F)c1)c1cnc(N2CCCC[C@@H]2CO)cc1-c1ccccc1Cl [Example 160, (R)-2-(3,5-Bis-trifluoromethyl-phenyl)-N-[4′-(2-chloro-phenyl)-2-hydroxymethyl-3,4,5,6-tetrahydro-2H-[1,2′]bipyridinyl-5′-yl]-N-methyl-isobutyramide] |
| 11.5 nM | 6.76 nM | CN(C(=O)C(C)(C)c1cc(C(F)(F)F)cc(C(F)(F)F)c1)c1cnc(N2CCCC[C@H]2CO)cc1-c1ccccc1Cl [Example 161, (S)-2-(3,5-Bis-trifluoromethyl-phenyl)-N-[4′-(2-chloro-phenyl)-2-hydroxymethyl-3,4,5,6-tetrahydro-2H-[1,2′]bipyridinyl-5′-yl]-N-methyl-isobutyramide] |
| 2.09 nM | 18.6 nM | Cc1cc(F)ccc1-c1cc(N2CC(O)C2)ncc1N(C)C(=O)C(C)(C)c1cc(C(F)(F)F)cc(C(F)(F)F)c1 [Example 162, 2-(3,5-Bis-trifluoromethyl-phenyl)-N-[4-(4-fluoro-2-methyl-phenyl)-6-(3-hydroxy-azetidin-1-yl)-pyridin-3-yl]-N-methyl-isobutyramide] |
| 1.82 nM | 28.2 nM | Cc1ccccc1-c1cc(N2CC(O)C2)ncc1N(C)C(=O)C(C)(C)c1cc(C(F)(F)F)cc(C(F)(F)F)c1 [Example 163, 2-(3,5-Bis-trifluoromethyl-phenyl)-N-[6-(3-hydroxy-azetidin-1-yl)-4-o-tolyl-pyridin-3-yl]-N-methyl-isobutyramide] |
| 1.62 nM | 15.8 nM | Cc1cc(F)ccc1-c1cc(N2CCNC(=O)CC2)ncc1N(C)C(=O)C(C)(C)c1cc(C(F)(F)F)cc(C(F)(F)F)c1 [Example 164, 2-(3,5-Bis-trifluoromethyl-phenyl)-N-[4-(4-fluoro-2-methyl-phenyl)-6-(5-oxo-[1,4]diazepan-1-yl)-pyridin-3-yl]-N-methyl-isobutyramide] |
| 2.09 nM | 1.1 nM | Cc1cc(F)ccc1-c1cc(N2CCC[C@H]2CO)ncc1N(C)C(=O)C(C)(C)c1cc(C(F)(F)F)cc(C(F)(F)F)c1 [Example 165, (S)-2-(3,5-Bis-trifluoromethyl-phenyl)-N-[4-(4-fluoro-2-methyl-phenyl)-6-(2-hydroxymethyl-pyrrolidin-1-yl)-pyridin-3-yl]-N-methyl-isobutyramide] |
| 3.8 nM | 1.2 nM | Cc1ccc(F)cc1-c1cc(N2CCC[C@H]2CO)ncc1N(C)C(=O)C(C)(C)c1cc(C(F)(F)F)cc(C(F)(F)F)c1 [Example 166, (S)-2-(3,5-Bis-trifluoromethyl-phenyl)-N-[4-(5-fluoro-2-methyl-phenyl)-6-(2-hydroxymethyl-pyrrolidin-1-yl)-pyridin-3-yl]-N-methyl-isobutyramide] |
| 4.47 nM | 0.977 nM | Cc1c(F)cccc1-c1cc(N2CCC[C@H]2CO)ncc1N(C)C(=O)C(C)(C)c1cc(C(F)(F)F)cc(C(F)(F)F)c1 [Example 167, (S)-2-(3,5-Bis-trifluoromethyl-phenyl)-N-[4-(3-fluoro-2-methyl-phenyl)-6-(2-hydroxymethyl-pyrrolidin-1-yl)-pyridin-3-yl]-N-methyl-isobutyramide] |
| 2.09 nM | 10 nM | Cc1ccccc1-c1cc(N2CCC[C@@H]2CO)ncc1N(C)C(=O)C(C)(C)c1cc(C(F)(F)F)cc(C(F)(F)F)c1 [Example 168, (R)-2-(3,5-Bis-trifluoromethyl-phenyl)-N-[6-(2-hydroxymethyl-pyrrolidin-1-yl)-4-o-tolyl-pyridin-3-yl]-N-methyl-isobutyramide] |
